Measured values taken from patent publication EP0642787A2, “Cessation of tobacco use” (ELI LILLY AND COMPANY, priority 1993, dated 1995).

Columns and labels:
5HT1A receptor [1] = experiment: Serotonin syndrome test (antagonism of 8-OH-DPAT-induced signs); assay type: in vivo, rats; conditions: 4 point scale 0-3; for LLR score / FBP score / lower lip retraction (LLR) score / flat body posture (FBP) score: 8-OH-DPAT alone scores 3
Method: Adult male rats are placed singly in clear plastic cages for behavioral observations. Preferably, the cages have metal screen lids and fresh sawdust covering the floor. The animals are adapted to the cages for a short period, and then the compounds to be tested are administered at doses and route determined by the experimenter, based on the probable potency of the test compounds. After 15 minutes, each rat is then given a subcutaneous injection of 0.1 mg/kg of 8-hydroxy-2-dipropylaminotetralin (8-OH-DPAT). Fifteen minutes after administration of the 8-OH-DPAT, the animals are evaluated for evidence of the following signs: reciprocal forepaw treading; Straub tail (rigid or corkscrew); lateral head weaving; hind limb abduction; resting tremor, especially of the head and forepaws; lower-lip retraction; and flat-body posture.
Those signs are produced by 8-OH-DPAT, and the administration of 5HT1A antagonists is able to block or greatly attenuate the appearance of the signs.

5HT1A receptor [2] = experiment: as above; assay type: in vivo, rats; conditions: exception at 1.0 or 10 mg/kg s.c. (dose not specified); 4 point scale 0-3
5HT1A receptor [3] = biological target: 5HT1A receptor (Homo sapiens, UniProt P08908); conditions: partial agonist; cited from earlier work
[4] = 3 mg/kg test compound s.c., then 8-OH-DPAT 0.1 mg/kg s.c.

Chain of 5HT1A receptor (Homo sapiens, UniProt P08908) (P08908 whole entry): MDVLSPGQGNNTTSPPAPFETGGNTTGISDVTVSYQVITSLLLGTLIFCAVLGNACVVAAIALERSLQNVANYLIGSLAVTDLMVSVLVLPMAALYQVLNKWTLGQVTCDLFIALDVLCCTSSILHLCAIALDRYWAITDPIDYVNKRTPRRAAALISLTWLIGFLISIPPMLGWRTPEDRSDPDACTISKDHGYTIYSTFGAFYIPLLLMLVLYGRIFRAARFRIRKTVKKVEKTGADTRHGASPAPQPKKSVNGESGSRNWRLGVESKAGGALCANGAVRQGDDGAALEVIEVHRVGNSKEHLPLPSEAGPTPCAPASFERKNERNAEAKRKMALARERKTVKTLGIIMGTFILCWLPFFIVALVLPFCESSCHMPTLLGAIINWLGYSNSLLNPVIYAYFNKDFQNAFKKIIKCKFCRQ

Q: What does the source list for `OC(CN[C@@H]1C[C@H]2CC[C@@H]1C2)COc1cccc2[nH]ccc12` (relative stereo) [(exo)-1-(4-indolyloxy)-3-norbornylamino-2-propanol]?
A: LLR score (5HT1A receptor [1]; 1 mg/kg test compound s.c.): ≤ 1; FBP score (5HT1A receptor [1]; 1.0 mg/kg test compound s.c.): ≤ 0.5; FBP score (5HT1A receptor [1]; 10 mg/kg test compound s.c.): ≤ 0.5; LLR score (5HT1A receptor [1]; 10 mg/kg test compound s.c.): ≤ 1; LLR score at 20 minutes after administration of 8-OH-DPAT (5HT1A receptor [2]): 1.25

Q: Which results are given for `O=C(O)C(=O)O.OC(CNCCCCc1ccccc1)COc1cccc2[nH]ccc12` (stereo not shown) [1-(4-indolyloxy)-3-(4-phenylbutylamino)-2-propanol, oxalate salt]?
A: FBP score (5HT1A receptor [1]; 10 mg/kg test compound s.c.): 1.25; peak LLR score (5HT1A receptor [1]; 10 mg/kg test compound s.c., score quickly declined from its peak): 2

Q: What does the source list for `OC(CNC1CCCCCC1)COc1cccc2[nH]ccc12` (stereo not shown) [1-(4-indolyloxy)-3-cycloheptylamino-2-propanol]?
A: LLR score (5HT1A receptor [1]; 1 mg/kg test compound s.c.): ≤ 1.75; lower lip retraction (LLR) score (5HT1A receptor [1]; [4]): ≤ 1.75; LLR score (5HT1A receptor [1]; 10 mg/kg test compound s.c.): 0; FBP score (5HT1A receptor [1]; doses of 1 mg/kg and above s.c.): below 1

Q: Which “flat body posture (FBP) score” value (5HT1A receptor [1]; 0.3 mg/kg test compound s.c.) does the source give for `O=C(O)CCC(=O)O.O[C@@H](CNC1CCCCC1)COc1cccc2[nH]ccc12` [(S)-(-)-1-(4-indolyloxy)-3-cyclohexylamino-2-propanol, butanedioate salt] here?
A: Its value is “below 2”.

Q: What about the “lower lip retraction (LLR) score” value (5HT1A receptor [1]; 0.3 mg/kg test compound s.c.) of the same molecule?
A: Its value is “below 2”.

Q: And the “flat body posture (FBP) score” value (5HT1A receptor [1]; [4])?
A: The value was “completely abolished”.

Q: What about the “lower lip retraction (LLR) score” value (5HT1A receptor [1]; [4]) of the same molecule?
A: The value was “completely abolished”.

Q: For `O=C1CC2(CCCC2)CC(=O)N1CCCCN1CCN(c2ncccn2)CC1` [Buspirone], which “antagonistic activity at the 5HT1A receptor” value (5HT1A receptor [3]) is on record?
A: Its value is “about 30%”.
